Structures can show the parent of a compound that is named as a salt. Marks after values point to notes of the source that are not given here. One block for each molecule: values may come before it.
Legend:
[1] = target: T1, VLA-4 (Homo sapiens, UniProt P05556+P13612); assay: Real-time binding of HUTS-21 antibodies to U937 cells; format: cell-based; design: host or cells: U937 (human histiocytic lymphoma); in part of the real-time experiments U937 stably transfected with a non-desensitizing FPR mutant, where VLA-4 itself is endogenous; conditions: 1 nM LDV in the absence of the compound
Procedure: the Ability of a Flow Cytometer to Discriminate between free and bound fluorescent ligand in a homogeneous assay was used to determine the binding kinetics of mAbs in real-time (15; 26). Cells (10^6 cells/ml) were removed from ice and warmed in HEPES buffer containing 0.1% HSA for 10 min at 37° C. […] Screening hits at saturating concentration (10-30 μM final) or DMSO (vehicle) were added at point 0.

[2] = target: T1, VLA-4; assay: Detection of VLA-4 allosteric antagonists: HUTS-21 binding inhibition screen of the Prestwick Chemical Library
Procedure: 5 μl RPMI was added to columns 2-24. Column 1 was left empty for flow cytometry data binning purposes. Test compounds in DMSO (Prestwick Chemical Library, PCL) were added and mixed (0.1 μl of 1 mM stock solution). […] Compounds were added to 320 wells (columns 3-22). […] Columns 23, 24 were used for the positive control (no test compounds added). Next, 5 μl aliquots of U937 cells were suspended in RPMI 1640 at 3×10^6 cells/ml, loaded in 384 well plates, and mixed (1×10^6 cells/ml final). Cells were incubated for 10 min at RT. This time is sufficient for the binding of a small molecule (˜1 kD) at 10 μM at RT. […] Plates were incubated for 1 hour at 37° C. According to the real-time kinetic studies this time was sufficient to reach equilibrium. Next, wells were sampled using the high throughput flow cytometry platform (HyperCyt) at UNMCMD.
After data acquisition by the flow cytometer (CyAn™ ADP), proprietary software was used to analyze the data files (IDLQuery, at UNMCMD, developed by Bruce Edwards). The data were exported into a Microsoft Excel spreadsheet template, and the value for antibody binding inhibition (%) was calculated for each well as follows: % Inhibition=100(1−((MCFtest−MCFneg.control)/MCFpos.control−MCFneg.control))), where, MCF is mean channel fluorescence of cells with test compounds, and positive or negative control wells.

[3] = target: T1, VLA-4; assay: HUTS-21 antibody binding (ligand induced epitope exposure) on U937 cells; format: cell-based; design: host or cells: U937 (human histiocytic lymphoma); in part of the real-time experiments U937 stably transfected with a non-desensitizing FPR mutant, where VLA-4 itself is endogenous
Procedure: U937 cells were suspended in the HEPES buffer (see above) 1×10^6 cells/ml, 100 μl aliquots (10^5 cells) were incubated with different concentrations of unlabeled compounds for 10 min. Next, 20 μl of PE-labeled HUTS-21 antibodies was added and cells were incubated for additional […] at room temperature. Next, cells were washed with 1 ml of HEPES buffer, resuspended in 300-500 μl of buffer and analyzed by flow cytometry (FL2 channel, BD FACScan). The data were plotted as mean channel fluorescence vs. the concentration of the compound. The data were fitted to a sigmoidal dose-response equation. To determine the level of nonspecific binding, cells were stained in parallel with the isotype control antibodies.

[4] = target: T2, LFA-1 (Homo sapiens, UniProt P05107+P20701); assay: Binding of MEM-148 mAbs to U937 cells (epitope exposure); format: cell-based
T2 construct: host or cells: U937 (human histiocytic lymphoma)
From the text: In order to confirm that similar results can be obtained with other integrins we have constructed a 3D model of αLβ2-integrin (LFA-1, CD11a/CD18). Amino acid residue critical for the binding of MEM-148 mAb to β2-integrin subunit (Pro 374) was highlighted as green space fill (1). This model was compared to the model of β1-integrin subunit, where critical residues (Ser370, Glu371, and Lys417) were highlighted in a similar way (2) (FIG. 8). It is worth noting that critical residues for both mAbs are positioned in a similar way on the inner side of the hybrid domain. Since the outward movement of the hybrid domain, induced by a ligand binding (at least for β1-integrin (2)), can be used to report occupancy of the ligand binding pocket (3), we decided to use MEM-148 mAbs to probe LFA-1 integrin conformation upon ligand binding.
To test this possibility, two αLβ2-integrin ligands were synthesized as described previously. Compound 3 (Genentech) and XVA143 (Roche) are shown to be LFA-1 specific antagonists (4) FIG. 9.

[5] = test system: hematopoietic stem and progenitor cells (HSPCs); assay: Mobilization of hematopoietic stem and progenitor cells into the peripheral blood; conditions: mouse; for CFU/ml in peripheral Blood / WBC count/ml × 10^6: intraperitoneal, one hour prior to blood collection, thioridazine hydrochloride 1.25 mg/kg, AMD3100 5 mg/kg, Mean ± S.E.
[6] = target: VLA-4 (very late antigen 4, CD49d/CD29, alpha4beta1 integrin) (human) (UniProt P13612); assay: flow cytometry on U937 cells, PE-HUTS-21 with rising LDV
Sequence of VLA-4 (very late antigen 4, CD49d/CD29, alpha4beta1 integrin) (human) (P13612 34-1032, chain 1 of 2): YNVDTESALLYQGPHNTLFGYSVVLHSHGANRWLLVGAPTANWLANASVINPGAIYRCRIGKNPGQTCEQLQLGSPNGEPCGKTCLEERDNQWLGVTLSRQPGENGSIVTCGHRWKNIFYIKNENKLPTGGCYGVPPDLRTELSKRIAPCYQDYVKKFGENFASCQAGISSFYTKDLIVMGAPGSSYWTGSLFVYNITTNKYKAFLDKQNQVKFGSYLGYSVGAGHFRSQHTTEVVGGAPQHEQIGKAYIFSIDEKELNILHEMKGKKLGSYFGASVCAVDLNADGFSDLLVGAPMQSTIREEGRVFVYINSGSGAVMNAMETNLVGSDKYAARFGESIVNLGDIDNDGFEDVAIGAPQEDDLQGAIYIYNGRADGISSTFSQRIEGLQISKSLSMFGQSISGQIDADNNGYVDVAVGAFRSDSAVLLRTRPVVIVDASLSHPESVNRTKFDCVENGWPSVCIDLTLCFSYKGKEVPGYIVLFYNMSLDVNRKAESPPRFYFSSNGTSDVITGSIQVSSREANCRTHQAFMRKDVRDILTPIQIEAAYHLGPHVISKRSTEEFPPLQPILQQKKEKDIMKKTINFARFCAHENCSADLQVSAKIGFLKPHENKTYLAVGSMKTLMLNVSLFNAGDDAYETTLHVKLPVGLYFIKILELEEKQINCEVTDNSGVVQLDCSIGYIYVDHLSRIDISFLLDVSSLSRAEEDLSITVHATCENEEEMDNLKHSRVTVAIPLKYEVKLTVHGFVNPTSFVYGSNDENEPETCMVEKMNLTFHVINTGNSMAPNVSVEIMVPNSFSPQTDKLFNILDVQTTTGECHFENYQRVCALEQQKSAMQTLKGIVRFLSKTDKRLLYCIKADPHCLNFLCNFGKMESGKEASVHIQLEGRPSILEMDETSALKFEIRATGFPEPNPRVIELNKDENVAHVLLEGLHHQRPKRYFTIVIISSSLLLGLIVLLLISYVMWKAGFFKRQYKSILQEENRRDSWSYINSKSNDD
Sequence of VLA-4 (very late antigen 4, CD49d/CD29, alpha4beta1 integrin) (human) (P05556 21-798, chain 2 of 2, further chain): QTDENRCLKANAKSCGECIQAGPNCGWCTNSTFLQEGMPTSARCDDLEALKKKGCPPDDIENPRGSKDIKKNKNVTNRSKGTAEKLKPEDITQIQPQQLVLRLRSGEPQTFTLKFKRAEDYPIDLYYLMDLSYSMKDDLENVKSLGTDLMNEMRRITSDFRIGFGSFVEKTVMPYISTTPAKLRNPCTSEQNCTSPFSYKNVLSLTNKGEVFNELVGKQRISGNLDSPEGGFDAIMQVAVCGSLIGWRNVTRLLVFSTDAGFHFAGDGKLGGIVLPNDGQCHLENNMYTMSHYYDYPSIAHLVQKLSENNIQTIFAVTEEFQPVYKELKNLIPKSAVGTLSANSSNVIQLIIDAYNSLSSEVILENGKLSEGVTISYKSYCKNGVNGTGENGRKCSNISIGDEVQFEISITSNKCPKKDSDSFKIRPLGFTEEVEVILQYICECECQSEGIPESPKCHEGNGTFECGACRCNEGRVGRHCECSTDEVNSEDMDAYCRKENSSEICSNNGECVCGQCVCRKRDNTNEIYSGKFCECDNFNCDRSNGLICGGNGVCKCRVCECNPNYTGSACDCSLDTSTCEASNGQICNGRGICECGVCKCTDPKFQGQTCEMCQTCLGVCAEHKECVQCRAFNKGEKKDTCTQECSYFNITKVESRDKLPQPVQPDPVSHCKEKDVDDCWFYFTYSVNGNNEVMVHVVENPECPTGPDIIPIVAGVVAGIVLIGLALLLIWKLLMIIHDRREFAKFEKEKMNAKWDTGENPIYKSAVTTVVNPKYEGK

T1 sequence (P13612 34-1032): as the sequence (P13612 34-1032, chain 1 of 2) above
T1 sequence (P05556 21-798): as the sequence (P05556 21-798, chain 2 of 2, further chain) above
T2 sequence (P20701 26-1170): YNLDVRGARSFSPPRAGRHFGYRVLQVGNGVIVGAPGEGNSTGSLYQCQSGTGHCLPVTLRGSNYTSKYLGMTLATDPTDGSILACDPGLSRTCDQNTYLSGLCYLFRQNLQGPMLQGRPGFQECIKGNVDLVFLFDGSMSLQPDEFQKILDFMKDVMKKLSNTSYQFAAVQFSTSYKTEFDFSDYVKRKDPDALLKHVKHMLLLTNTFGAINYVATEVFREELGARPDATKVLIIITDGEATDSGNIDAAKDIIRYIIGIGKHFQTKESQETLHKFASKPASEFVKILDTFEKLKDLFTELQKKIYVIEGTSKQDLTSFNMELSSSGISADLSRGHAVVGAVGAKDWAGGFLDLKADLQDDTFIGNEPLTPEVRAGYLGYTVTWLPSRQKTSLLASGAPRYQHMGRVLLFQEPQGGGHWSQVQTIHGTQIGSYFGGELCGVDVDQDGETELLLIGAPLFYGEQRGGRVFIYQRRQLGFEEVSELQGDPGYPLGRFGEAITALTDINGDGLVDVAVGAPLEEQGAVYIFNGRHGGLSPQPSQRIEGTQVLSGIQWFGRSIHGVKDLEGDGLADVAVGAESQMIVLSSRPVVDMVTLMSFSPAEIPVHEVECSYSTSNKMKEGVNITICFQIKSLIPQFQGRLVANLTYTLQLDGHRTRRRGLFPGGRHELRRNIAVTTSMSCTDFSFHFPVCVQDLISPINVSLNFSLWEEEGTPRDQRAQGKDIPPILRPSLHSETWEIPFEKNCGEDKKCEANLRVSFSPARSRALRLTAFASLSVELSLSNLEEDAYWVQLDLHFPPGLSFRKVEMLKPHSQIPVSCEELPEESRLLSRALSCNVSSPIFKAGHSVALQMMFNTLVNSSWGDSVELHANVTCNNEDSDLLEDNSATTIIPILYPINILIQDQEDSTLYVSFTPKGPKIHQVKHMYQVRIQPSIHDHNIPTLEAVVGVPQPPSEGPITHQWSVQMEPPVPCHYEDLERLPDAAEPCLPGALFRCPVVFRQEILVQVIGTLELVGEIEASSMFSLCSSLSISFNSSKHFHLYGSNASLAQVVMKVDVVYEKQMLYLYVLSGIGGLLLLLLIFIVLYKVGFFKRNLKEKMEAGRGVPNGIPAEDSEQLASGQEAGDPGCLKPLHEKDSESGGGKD
T2 sequence (P05107 23-769): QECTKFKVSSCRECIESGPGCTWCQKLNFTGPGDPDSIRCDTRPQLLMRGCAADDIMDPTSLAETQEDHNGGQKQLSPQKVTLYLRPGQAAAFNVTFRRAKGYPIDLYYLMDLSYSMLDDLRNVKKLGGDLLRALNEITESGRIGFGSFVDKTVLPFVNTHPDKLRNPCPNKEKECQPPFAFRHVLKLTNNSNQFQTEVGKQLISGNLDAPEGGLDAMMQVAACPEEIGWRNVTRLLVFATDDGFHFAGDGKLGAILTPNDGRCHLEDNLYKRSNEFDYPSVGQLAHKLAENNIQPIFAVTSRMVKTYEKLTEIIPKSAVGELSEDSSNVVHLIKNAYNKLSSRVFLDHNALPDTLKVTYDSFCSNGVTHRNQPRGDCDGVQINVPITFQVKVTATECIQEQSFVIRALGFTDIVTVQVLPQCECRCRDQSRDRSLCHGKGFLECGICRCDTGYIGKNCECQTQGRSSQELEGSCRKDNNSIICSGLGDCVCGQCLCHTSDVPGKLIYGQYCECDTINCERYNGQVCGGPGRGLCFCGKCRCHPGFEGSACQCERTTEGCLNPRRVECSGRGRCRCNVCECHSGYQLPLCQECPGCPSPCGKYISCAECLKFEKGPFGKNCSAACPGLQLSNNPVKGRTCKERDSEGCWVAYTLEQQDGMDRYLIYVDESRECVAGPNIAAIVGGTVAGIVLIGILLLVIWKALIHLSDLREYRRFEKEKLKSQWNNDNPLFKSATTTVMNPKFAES

Molecule: OCCN1CCN(CCCN2c3ccccc3Sc3ccc(Cl)cc32)CC1 [perphenazine]
LDV concentration required to induce HUTS-21 binding in the presence of the compound [1]: 0.1 µM

antagonistic activity in the HUTS-21 based screen [2]: did not show any antagonistic activity
Molecule: O=C(CCCN1CCC(O)(c2ccc(Cl)cc2)CC1)c1ccc(F)cc1 [haloperidol]

Molecule: COc1cccc(OC)c1-c1ccc(C[C@H](NC(=O)c2c(Cl)cccc2Cl)C(=O)O)cc1 [TR14035, N-(2,6-dichlorobenzoyl)-(L)-4-(2′,6′-bis-methoxyphenyl)phenylalanine]
LIBS (HUTS-21 epitope) exposure [3]: resulted in the LIBS exposure

exposure of MEM-148 epitope [4]: induced exposure of MEM-148 epitope
Molecule: O=C(NCc1cccc(O)c1)c1cc(Cl)c(C(=O)N[C@@H](CNC(=O)c2cc(O)cc(O)c2)C(=O)O)c(Cl)c1 [XVA143]

antagonistic activity in the HUTS-21 based screen [2]: did not show any antagonistic activity
Molecule: CCN(CC)CCNC(=O)c1cc(Cl)c(N)cc1OC [metoclopramide]

Molecule: c1cc(CN2CCCNCCNCCCNCC2)ccc1CN1CCCNCCNCCCNCC1 [AMD3100, AMD3100 octahydrochloride]
WBC count increase ([5]; AMD3100 5 mg/kg intraperitoneal, versus vehicle): ~2.1 fold
CFU/ml in peripheral Blood [5]: 511.8 ± 78.8^a CFU/ml
WBC count/ml × 10^6 [5]: 7.8 ± 0.7^b count/ml × 10^6

Molecule: CSc1ccc2c(c1)N(CCC1CCCCN1C)c1ccccc1S2 (stereo not drawn) [Thioridazine, Thioridazine hydrochloride]
CFU/ml in peripheral Blood [5]: 216.8 ± 42.1 CFU/ml
WBC count/ml × 10^6 [5]: 3.0 ± 0.3 count/ml × 10^6

antagonistic activity in the HUTS-21 based screen [2]: did not show any antagonistic activity
Molecule: CCN1CCCC1CNC(=O)c1cc(S(N)(=O)=O)ccc1OC (stereo not drawn) [sulpiride]

signal to background ratio [6]: 10
Molecule: Mouse anti-human CD29, HUTS-21 (PE) (antibody)
